Source: patent US9095541B2, “Brain tumor targeting peptides and methods” (Arch Cancer Therapeutics, Inc., priority 2009, dated 2015)
Entries after “also recorded” stand apart in the source; their conditions may differ.

Experiments:
[1] = tested on: implanted GBM tumor from the U87MG cell line; assay: In vivo targeting of fluorescent peptide to implanted U87MG tumor, fluorescence microscopy of brain sections; parameters: species or system mice
Description: (§1) In the studies shown in FIGS. 13A and 13B, brain tumors were implanted in mice with a patient-derived BTIC cell line BT025 identified as above by its binding to the 7A peptide. After tumor growth from the implanted cells, the tumors were removed, sectioned and stained for microscopic visualization. In the studies shown in FIGS. 14-19, a fluorescent peptide was administered intravenously, either by intracorotid injection or via tail vein into mice having an implanted GBM tumor from the BT025 cell line (FIGS. 14-17) or the U87MG cell line (FIGS. 18 and 19), and after localization of the peptide, the animal were sacrificed and their brain tumors removed for sectioning and visualization by fluorescence microscopy.
FIGS. 18A and 18B-18D show similar views, where the animal was injected with a fluorescently labeled modified H10 peptide (SEQ ID NO: 17, preferential for HIGC binding), in animals carrying a tumor initiated with the U87MG human glioblastoma cell line. For these studies, the tumors were not grown as large, and a far-red fluorescent signal is not obvious from inspection without sectioning (FIG. 18A).
FIGS. 19A and 19B and 19D show similar views, where the animal was injected with a fluorescently labeled modified E10 peptide (SEQ ID NO: 13, which binds to both BTIC's and HIGC's), in animals carrying a tumor initiated with the U87MG human glioblastoma cell line. […]

U87T (main tumor) cells = assay: Peptide binding to U87T cells; parameters: species or system human
U87MG cells = assay: Staining with biotin-labeled synthetic peptide, confocal, U87MG; assay type: binding, human
Description: (§2) Binding specificity of the 7A peptide was assessed with non-target (U87MG; NSC) and target (BTIC) cells using a biotinylated 7A peptide (red) followed by confocal imaging.
(§3) To confirm the preferential binding of 7A to the BTICs rather than the cells used for subtraction, neurospheres and U87MG cells were stained in suspension with biotin-labeled synthetic peptide. […] Examination of the interaction of all selected peptides across a panel of BTIC lines underscored the heterogeneity within each cell population, and established a platform for correlating the ability to bind particular peptide sequences with either cell behavior or patient outcome.
(§4) Adherent cells: 13 mm coverslips were coated with neutralized 3 mg/mL Collagen I (PureCol), allowed to dry, then plated with test cells at 1×10^4/mL, 0.5 mL volume and allowed to equilibrate 20 minutes under normal culture conditions. Coverslips were fixed for 10 minutes in 3% formaldehyde in PBS, washed, then incubated in biotinylated peptide (3 mM stock) or primary antibody at a 1:100 dilution in 2% BSA/0.02% Tween 20 in PBS for 1 hour at room temperature. After washing in PBS, secondary antibody or streptavidin-Alexa 568 was applied at a dilution of 1:250 for 1 hour before coverslips were washed and mounted with DAKO mounting media with antifade. […]

[2] = tested on: BTIC lines (neurospheres); assay: Staining with biotin-labeled synthetic peptide, confocal, BTIC neurospheres; assay type: binding, human; conditions: neurospheres stained in suspension
Description: as §2, §3, §4

[3] = tested on: BTIC isolates (BTIC 12, 25, 42, 50); assay: Biopanning of phage display library against a mixture of BTIC isolates, sequencing of subclones; conditions: BTIC-binding phage subclones; given as n/50 subclones screened
U87R (HIGC) cells = assay: Peptide binding to U87R cells; parameters: species or system human
U87R cells = assay: Subtractive/selective biopanning of Ph.D.-12 phage display library against U87R cells, sequencing of subclones; parameters: species or system human; conditions: given as n/100
Description: The present inventors have earlier described an in vivo selection for a population of human glioma cells that were highly invasive (U87R). In order to isolate peptides that could bind specifically to these highly invasive glioma cells, a biopanning experiment using a combinatorial phage display library was employed. Initially subtractive biopanning was performed with the U87 cells that were non-invasive (U87T) followed by selective biopanning with the U87R cells to isolate a library of phage (FIG. 1A) that were confirmed to preferentially interact with U87R cells by whole-cell ELISA (FIG. 1B).
Biopanning was performed as described in [61]. Subtraction cells (e.g. U87T) were released from tissue culture plastic with Puck's EDTA, and after washing with PBS, 1×10^7 cells were resuspended in 1% BSA in PBS with 1.5×10^11 pfu of Ph.D.-12 M13 Phage Library (New England Biolabs). The cells and phage were incubated in an eppendorf tube for 1 hour at room temperature with gentle shaking, before pelleting the cells and retaining the supernatant, which was transferred to a fresh tube with another aliquot of subtraction cells. The incubation and transfer of supernatant was performed three times, with the supernatant being transferred to an empty tube on the last round. Selection cells were released from tissue culture plastic with Puck's EDTA (e.g. U87R cells) and washed in PBS. 5×10^6 cells were resuspended in the 3× subtracted supernatant and incubated for 4 hours at 4° C. with slow shaking. The cell pellet was washed 5× in cold 1% BSA/0.1% Tween 20 in PBS five times, changing the tube after each wash. Bound phage were eluted by rocking the cells gently for 10 minutes at 4° C. in 1 mL of 0.2M Glycine-HCl pH 2.2 with 1 mg/mL BSA, and the supernatant was immediately neutralized with 150 μL of 1M Tris-HCl pH 9.1. The final library was amplified as per manufacturer's protocol.

[4] = tested on: implanted GBM tumor from the BT025 cell line; assay: In vivo targeting of fluorescent peptide to implanted BT025 tumor, fluorescence microscopy of brain sections; parameters: species or system mice; conditions: for distribution of fluorescent peptide signal in brain sections: BT025 tumor, intracarotid injection; for localization of peptide conjugate in human GBM tissue in vivo (summary): intravenous administration, BT025 tumor (general statements also cover U87MG tumors)
Description: as §1
The peptide was administered to the mouse via intracarotid injection and allowed to circulate for approximately half an hour to allow clearance of background signal before the mouse was sacrificed and the brain removed for imaging using an Olympus OV100 whole mouse imaging system. By non-magnified inspection, the large outgrowth of the tumor is obvious.
FIGS. 14B and 14C are lower and higher magnification photomicrographs of a thin section taken from the brain in FIG. 14A after it was bisected close to the tumor implantation site and stained for human nuclear antigen (green) and total DNA (blue) to outline the positioning of the cells. The red peptide signal is visible on cells immediately adjacent to the main tumor mass as well as spread diffusely in the surrounding tissue.

[5] = tested on: U87MG cells transfected with p75^NTR; assay: Transwell migration assay, p75NTR-transfected U87MG; assay type: cell-based, human; conditions: in vitro invasion assay
Description: The membranes of 8 μm pore sized transwell inserts (Corning Costar) were coated with brain-like matrix (720 μL of 3 mg/mL collagen I (PureCol); 180 μL of 10×DMEM (Invitrogen); 9 uL of 1 mg/mL human plasma fibronectin (Sigma); 9 uL of 1 mg/mL chondroitin sulfate proteoglycans (Chemicon); 16 μL of 0.15 mg/mL laminin (Chemicon)) on both sides, allowed to dry, then plated with 5×10^4 cells in 100 μL media in the upper chamber and 500 μL media in the lower chamber. Inclusion of collagen was essential to see the inhibitory effect of H10 (FIG. S4). 3×10^10 pfu of test phage were added to the upper chambers containing the cells, which were incubated for 4 hours under normal culture conditions. At the end of the incubation, the media was aspirated and the cells were fixed and stained in 1% crystal violet in 95% ethanol for one minute. Transwells were rinsed in PBS, then cells on the upper membrane surfaces were removed with a cotton swab. Cells which had migrated to the undersurface of the membranes were counted by light microscopy, and the sum of cells in five microscopic fields was recorded for each membrane.

Substance	number of phage subclones containing that sequence [3]	number cell-binding phages containing that sequence (U87R cells)	also measured
SLHMRHKRKPRR (synthetic BTIC targeting peptide) [E10]	4/50		distribution of fluorescent peptide signal in brain sections ([1]; intracarotid injection): binds to a portion of cells within the main tumor mass; also recorded: also binds to cells outside of the main tumor mass; localization of peptide conjugate in human GBM tissue in vivo (summary) ([1]; intravenous administration): can localize in human GBM tissue in vivo; binding to U87T (main tumor) cells (U87T (main tumor) cells): bind; binding of peptide to U87MG cells (U87MG cells): binds; binding of peptide to BTICs [2]: binds; binding to U87R (HIGC) cells (U87R (HIGC) cells): bind
HWAPSMYDYVSW (synthetic HIGC targeting peptide) [M5]		7/100	
KTSMRPLILIHI (synthetic BTIC targeting peptide) [3B]	2/50		distribution of fluorescent peptide signal in brain sections [4]: binds to cells that are both within and outside the main tumor mass; localization of peptide conjugate in human GBM tissue in vivo (summary) [4]: can localize in human GBM tissue in vivo
EHMALTYPFRPP (synthetic HIGC targeting peptide) [C12]		13/100	
HLFPQSNYGGHS (synthetic HIGC targeting peptide) [M24]		2/100	
IRSIRMRRILIL (synthetic BTIC targeting peptide) [C1]	2/50		
SGHQLLLNKMPN (synthetic HIGC targeting peptide) [M19]		4/100	
methyl-β-cyclodextran			cell migration of U87p75 glioma cells [5]: significantly inhibited cell migration
CIQLANPPRLXG [M23]		2/100	
GMSLSRQMLWSL (synthetic HIGC targeting peptide) [F2]		2/100	
GISLSSYLQSTQ (synthetic HIGC targeting peptide) [M32]		20/100	
SVSVGMKPSPRP (synthetic HIGC targeting peptide) [A2]		21/100	
SSRSMQRTLIIS (synthetic BTIC targeting peptide) [3F]	2/50		distribution of fluorescent peptide signal in brain sections [4]: most of the red signal appears outside of the main tumor mass; localization of peptide conjugate in human GBM tissue in vivo (summary) [4]: can localize in human GBM tissue in vivo
RTVPDYTAHVRT (synthetic HIGC targeting peptide) [M43]		5/100	
QTIRIIIRRSRT (synthetic BTIC targeting peptide) [10C]	6/50		
